The target in this assay is T1, P2X4 receptor (Homo sapiens, UniProt Q99571).
T1 construct: expressed in transfected cells; host or cells: 1321N1 astrocytoma cells, retroviral vector pQCXIN, G418 selection, monoclones
T1 sequence (Q99571 1-388): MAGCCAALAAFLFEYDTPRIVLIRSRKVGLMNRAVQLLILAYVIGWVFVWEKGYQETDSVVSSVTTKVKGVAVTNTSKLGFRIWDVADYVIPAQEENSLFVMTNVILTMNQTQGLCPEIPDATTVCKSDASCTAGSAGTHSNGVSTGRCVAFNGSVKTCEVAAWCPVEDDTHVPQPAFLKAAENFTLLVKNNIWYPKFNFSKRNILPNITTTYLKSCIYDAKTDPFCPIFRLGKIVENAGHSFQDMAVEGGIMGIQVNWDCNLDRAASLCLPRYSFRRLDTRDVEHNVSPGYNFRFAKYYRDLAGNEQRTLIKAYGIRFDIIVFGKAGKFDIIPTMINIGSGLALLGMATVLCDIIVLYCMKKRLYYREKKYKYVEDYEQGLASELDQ
Description: Measurement of Ca2+ influx in transfected 1321N1 astrocytoma cells (P2X4 inhibitory potency). The following applies: agonist-mediated Ca2+ influx, FLUO-4, 1321N1 astrocytoma cells; antagonists added 30 min before agonist. The assay is classed as cell-based. An excerpt: The rat, mouse, and human P2X4 DNA, respectively, were cloned into the retroviral vector pQCXIN. 1321N1 Astrocytoma cells were transfected with the DNA using a retroviral system as described previously. In brief, GP+envAM12 packaging cells were first transiently co-transfected with a retroviral vector to generate the retrovirus and with a vesicular stomatitis virus G protein (VSV-G) to pseudotype the virus and to increase their infection efficiency. The viruses containing the rat, mouse or human P2X4 receptor sequence were then used to create a stable astrocytoma cell line. P2X4 receptor-expressing cells were selected with G418 ([…]).
The selection of monoclones for rat and human P2X4 receptors was performed using the limited dilution method by plating the cells at very low cell densities (1 cell clone per well in 96-well plates). Cells were counted, and then several dilutions were made to obtain a concentration of […]. We subsequently added 100 µL of the diluted cell suspension into each well expecting to obtain on average 1 cell per well. After a few days the wells that contained single clones were labeled and transferred into 24 well plates. More than 20 clones were selected for each cell line and characterized in calcium influx assay.
Measurement of Ca^2+ influx in transfected 1321N1 astrocytoma cells
P2X receptor function was determined on the basis of agonist-mediated increases in cytosolic Ca^2+ concentration. The fluorescent Ca^2+chelating dye FLUO-4 was used as an indicator of the relative levels of intracellular Ca^2+ in a 96-well format using a fluorescence imaging plate reader (Novostar, BMG, Germany). Cells were grown to confluence in 96-well black-walled tissue culture plates and loaded with FLUO-4 AM ([…]) in Hank's balanced salt solution (HBSS, containing 10 mM HEPES, pH 7.3, and 1% Pluronic® F127) for 1 h at 23° C. After incubation, the loaded cells were washed with the same buffer to remove extracellular FLUO-4 AM. Compound solutions were prepared in HBSS (containing 20 mM HEPES, pH 7.3) or DMSO depending on their solubility. […] Fluorescence intensity was measured at 520 nm for 30 s at 0.4 s intervals. Buffer or test compounds were injected sequentially into separate wells using the automatic pipetting device. At least three independent experiments were performed in triplicate or duplicate. Antagonists were added 30 min before the addition of agonists. The assays were performed in a final volume of 200 μL. Compounds were tested at 7-8 different concentrations spanning three orders of magnitude of concentrations. Statistical significances were calculated using the unpaired two-tailed t-test.

The structures appear in SMILES notation.

Usually IC50 stands for the concentration needed to halve the response being measured. A low value points to higher potency. As to `CCc1nsc(-c2ccc(C)c(NCC(=O)N3CCc4c3cccc4S(=O)(=O)NC)c2)n1` [Example 26, 1-((5-(3-ethyl-1,2,4-thiadiazol-5-yl)-2-methylphenyl)glycyl)-N-methylindoline-N-sulfonamide], the half-maximal inhibitory concentration (IC50) fell in the range of 0.1 to 19 nM. On to `Cc1ccc(-c2ccc(C)c(NCC(=O)N3CCc4c(-c5c[nH]cn5)cccc43)c2)o1` [Example 73, 1-(4-(1H-imidazol-4-yl)indolin-1-yl)-2-((2-methyl-5-(5-methylfuran-2-yl)phenyl)amino)ethan-1-one], for which the IC50 is 40 to 69 nM.

Take `Cc1nsc(-c2ccc(C)c(NCC(=O)N3CCc4c(NC(=O)[C@H]5CCCN5)cccc43)c2)n1` [Example 81, (R)-N-(1-((2-methyl-5-(3-methyl-1,2,4-thiadiazol-5-yl)phenyl)glycyl)indolin-4-yl) pyrrolidine-2-carboxamide]: the IC50 lay within 0.1 to 19 nM. With `Cc1noc(-c2ccc(C)c(NCC(=O)N3CCc4c(C(N)C(F)(F)F)cccc43)c2)n1` (centres unmarked) [Example 89, 1-(4-(1-amino-2,2,2-trifluoroethyl)indolin-1-yl)-2-((2-methyl-5-(3-methyl-1,2,4-oxadiazol-5-yl)phenyl)-amino)ethan-1-one], the IC50 is 70 to 99 nM. As to `Cc1nsc(-c2ccc(C)c(NCC(=O)N3CCc4ccccc43)c2)n1` [Example 52, 1-(indolin-1-yl)-2-((2-methyl-5-(3-methyl-1,2,4-thiadiazol-5-yl)phenyl)amino)ethan-1-one], the IC50 lay within 40 to 69 nM. The molecule `CCc1nsc(-c2ccc(C)c(NCC(=O)N3CCc4c(N5CC(C)OC(C)C5)cccc43)c2)n1` (centres unmarked) [Example 27, 1-(4-(2,6-dimethylmorpholino)indolin-1-yl)-2-((5-(3-ethyl-1,2,4-thiadiazol-5-yl)-2-methylphenyl)amino) ethan-1-one] returned an IC50 of 0.1 to 19 nM. `Cc1nsc(-c2ccc(C)c(NCC(=O)N3CCc4c3ccnc4C(C)(C)O)c2)n1` [Example 90, 1-(4-(2-Hydroxypropan-2-yl)-2,3-dihydro-1H-pyrrolo[3,2-c]pyridin-1-yl)-2-((2-methyl-5-(3-methyl-1,2,4-thiadiazol-5-yl)phenyl)amino)ethan-1-one]: the IC50 is more than 100 nM.

For the molecule `CCc1noc(-c2ccc(F)c(NCC(=O)N3CCc4cc(OC)c(F)cc43)c2)n1` [Example 3, 2-((5-(3-ethyl-1,2,4-oxadiazol-5-yl)-2-fluorophenyl)amino)-1-(6-fluoro-5-methoxyindolin-1-yl)ethan-1-one], the IC50 was 20 to 39 nM.

In turn, `COc1ccc(-c2nc(C)ns2)cc1NCC(=O)n1ccc2cc(F)ccc21` [Example 6, 1-(5-fluoro-1H-indol-1-yl)-2-((2-methoxy-5-(3-methyl-1,2,4-thiadiazol-5-yl)phenyl)amino-) ethan-1-one] registered an IC50 of 70 to 99 nM. Consider `COc1ccc(-c2ccc(C)cn2)cc1NCC(=O)N1CCc2c(OC)cccc21` [Example 120, 2-((2-methoxy-5-(5-methyl-pyridin-2-yl)phenyl)amino)-1-(4-methoxyindolin-1-yl) ethan-1-one], for which the 50% inhibitory concentration (IC50) lay within 40 to 69 nM. Take `CCc1noc(-c2ccc(OC)c(NCC(=O)N3CCc4ccc(Br)cc43)c2)n1` [Example 9, 1-(6-bromoindolin-1-yl)-2-((5-(3-ethyl-1,2,4-oxadiazol-5-yl)-2-methoxyphenyl)amino) ethan-1-one]: the IC50 lay in the range of 40 to 69 nM. Molecule `COc1cccc2c1CCN2C(=O)CNc1cc(-c2nc(C)no2)ccc1C` [Example 2, 1-(4-methoxyindolin-1-yl)-2-((2-methyl-5-(3-methyl-1,2,4-oxadiazol-5-yl)phenyl)-amino)ethan-1-one] had an IC50 of 0.1 to 19 nM. With `Cc1nsc(-c2ccc(C)c(NCC(=O)c3c[nH]c4ncccc34)c2)n1` [Example 100, 2-((2-methyl-5-(3-methyl-1,2,4-thiadiazol-5-yl)phenyl)amino)-1-(1H-pyrrolo [2,3-b]pyridin-3-yl) ethan-1-one] the figure was 20 to 39 nM; with `CNC(=O)C1CN(C(=O)CNc2cc(-c3nc(C)ns3)ccc2C)c2ccccc21` (centres unmarked) [Example 59, N-methyl-1-((2-methyl-5-(3-methyl-1,2,4-thiadiazol-5-yl)phenyl)glycyl) indoline-3-carboxamide], more than 100 nM.

The values above are taken from patent publication US20260209215A1, “GLYCINE DERIVATIVES WITH P2X4 RECEPTOR-BLOCKING ACTIVITY AS DIAGNOSTICS AND FOR THE TREATMENT OF PAIN, INFLAMMATION, CANCER, AND OTHER P2X4 RECEPTOR-RELATED DISEASES” (RHEINISCHE-FRIEDRICH-WILHELMS-UNIVERSITÄT BONN, priority 2022, published 2026).
